The results in this text go back to the Kinase Knowledgebase extract (Sharma et al. 2016).

The target in this experiment is CDK2 (UniProt P24941). Description: Enzyme Assay. The following applies: for inhibition: concentration not given here.

For `Nc1nc(Nc2ccc(S(N)(=O)=O)cc2)sc1C1=NC2(O)OCCC2S1` (stereo not drawn), the inhibition stood at 29%.

In the case of `CC(C)c1ccc(Nc2nc(N)c(-c3nc(-c4ccc(OC(=O)c5ccccc5)cc4)cs3)s2)cc1`, the inhibition was determined as 7.3%.

`CC(C)c1ccc(Nc2nc(N)c(-c3nc(-c4ccc5oc6ccccc6c5c4)cs3)s2)cc1`: the inhibition is -4.3%.

Regarding `COc1cc(Nc2nc(N)c(-c3nc(-c4ccc(C)cc4)cs3)s2)cc(OC)c1OC`, the inhibition was -2.1%. For the compound `COc1cc(Nc2nc(N)c(-c3noc(-c4ccsc4)n3)s2)cc(OC)c1OC`, the inhibition turned out to be 21%.

Regarding `COc1cc(Nc2nc(N)c(-c3nc(-c4ccc5oc6ccccc6c5c4)cs3)s2)cc(OC)c1OC`, the inhibition came to 19%.

Turning to `COc1cc(Nc2nc(N)c(-c3nc(-c4ccc(C(F)(F)F)cc4)cs3)s2)cc(OC)c1OC`, the inhibition was 13.9%. Regarding `COc1cc(Nc2nc(N)c(-c3nc(-c4cccc(OC(=O)c5ccccc5)c4)cs3)s2)cc(OC)c1OC`, the inhibition is -12.3%. Same read-out and setting: in the case of `COc1cc(Nc2nc(N)c(-c3nc(-c4ccc(Cl)cc4)cs3)s2)cc(OC)c1OC` it was 0.1%; in that of `COc1cc(Nc2nc(N)c(-c3nc(-c4csc5ccccc45)cs3)s2)cc(OC)c1OC`, 9.1%; in that of `COc1ccc(-c2csc(-c3sc(Nc4cc(OC)c(OC)c(OC)c4)nc3N)n2)c(OC)c1`, 4.9%.

Regarding `Nc1nc(Nc2ccc(S(N)(=O)=O)cc2)sc1-c1nc(-c2ccc(Cl)cc2Cl)cs1`, the inhibition was 36%. As to `COc1cc(Nc2nc(N)c(-c3nc(-c4sc5ccc(Cl)cc5c4C)cs3)s2)cc(OC)c1OC`, the inhibition was 9.65%. Take `CCN(CC)c1ccc(-c2csc(-c3sc(Nc4cc(OC)c(OC)c(OC)c4)nc3N)n2)cc1`: the inhibition came to 6.3%. Turning to `CCc1cc2c(cc1-c1csc(-c3sc(Nc4cc(OC)c(OC)c(OC)c4)nc3N)n1)C(C)(C)CCC2(C)C`, the inhibition is 13.8%. Take `COc1cc(Nc2nc(N)c(-c3nc(-c4ccc(C#N)cc4)cs3)s2)cc(OC)c1OC`: the inhibition was 15.6%.

Regarding `CC(C)c1ccc(Nc2nc(N)c(-c3nc(-c4ccccc4)cs3)s2)cc1`, the inhibition turned out to be 20.9%. Take `Nc1nc(Nc2ccc(S(N)(=O)=O)cc2)sc1-c1nc(-c2ccc(F)cc2)cs1`: the inhibition came to 27%. In the case of `CCOC(=O)c1nc(-c2sc(Nc3ccc(S(N)(=O)=O)cc3)nc2N)sc1Cc1ccccc1`, the inhibition is 36%. With `COc1ccccc1-c1csc(-c2sc(Nc3ccc(N(C)C)cc3)nc2N)n1`, the inhibition is -6.4%. As to `COc1cc(Nc2nc(N)c(-c3nc(-c4ccc(C)cc4C)cs3)s2)cc(OC)c1OC`, the inhibition was 1.2%.

Consider `COc1cc(Nc2nc(N)c(-c3nc(-c4ccc(F)cc4)cs3)s2)cc(OC)c1OC`, for which the inhibition is 35%. For the compound `COc1cc(Nc2nc(N)c(-c3nc(-c4ccc(Cl)cc4Cl)cs3)s2)cc(OC)c1OC`, the inhibition was 3.8%. In the case of `COc1cc(Nc2nc(N)c(-c3nc(-c4ccc(OC(=O)c5ccccc5)cc4)cs3)s2)cc(OC)c1OC`, the inhibition turned out to be 14.6%.

On to `COc1cccc(-c2csc(-c3sc(Nc4cc(OC)c(OC)c(OC)c4)nc3N)n2)c1`, for which the inhibition was -0.4%. Take `CCCCCc1ccc(-c2csc(-c3sc(Nc4cc(OC)c(OC)c(OC)c4)nc3N)n2)cc1`: the inhibition is 11.3%. `COc1cc(O)c(Br)c(-c2csc(-c3sc(Nc4cc(OC)c(OC)c(OC)c4)nc3N)n2)c1` had an inhibition constant Ki of 710 nM. Take `COc1cc(Nc2nc(N)c(-c3nc(-c4ccc5c(c4)OCCO5)cs3)s2)cc(OC)c1OC`: the inhibition stood at 5.4%. For the compound `COc1cc(Nc2nc(N)c(-c3nc(-c4ccc(Cl)c([N+](=O)[O-])c4)cs3)s2)cc(OC)c1OC`, the inhibition was -4.8%. The same measure, in the same setting: in the case of `Nc1nc(Nc2ccc(S(N)(=O)=O)cc2)sc1-c1nc(-c2ccc(F)cc2F)cs1` it was 57%. Take `COc1cc(Nc2nc(N)c(-c3nc(-c4cc(Br)c(Cl)s4)cs3)s2)cc(OC)c1OC`: the inhibition is -0.2%. Regarding `Cc1onc(-c2ccccc2)c1-c1csc(-c2sc(Nc3ccc(S(N)(=O)=O)cc3)nc2N)n1`, the inhibition is -4.5%. Consider `CCOC(=O)c1ccccc1-c1csc(-c2sc(Nc3cc(OC)c(OC)c(OC)c3)nc2N)n1`, for which the inhibition stood at 4.4%. For `COc1cc(Nc2nc(N)c(-c3nc(-c4cc(-c5ccccc5)no4)cs3)s2)cc(OC)c1OC`, the inhibition was found to be 11.2%. The same measure, in the same setting: as for `COc1cc(Nc2nc(N)c(-c3nc(-c4cc(-c5ccc(Cl)c(Cl)c5)no4)cs3)s2)cc(OC)c1OC`, the figure is 17.5%; as for `COc1cc(Nc2nc(N)c(-c3nc(-c4ccc(O)c(O)c4)cs3)s2)cc(OC)c1OC`, -10.3%; as for `COc1cc(Nc2nc(N)c(-c3nc(-c4ccc[nH]4)cs3)s2)cc(OC)c1OC`, 14.3%. On the same count and under the same terms, in the case of `CN(C)c1ccc(Nc2nc(N)c(-c3nc(-c4cccc(OC(=O)c5ccccc5)c4)cs3)s2)cc1` it was 27.1%. In the case of `COc1cc(Nc2nc(N)c(-c3nc(-c4cc(C(=O)C(Cl)(Cl)Cl)n(C)c4)cs3)s2)cc(OC)c1OC`, the inhibition is 3.9%. With `COc1cc(Nc2nc(N)c(-c3nc(-c4cc(C(C)(C)C)c(O)c(C(C)(C)C)c4)cs3)s2)cc(OC)c1OC`, the inhibition is 5.3%. As for `CCCCCc1ccc(-c2csc(-c3sc(Nc4ccc(N(C)C)cc4)nc3N)n2)cc1`, the inhibition was -6%. For `COc1cc(Nc2nc(N)c(-c3nc(-c4ccc5c(c4)C(C)(C)CCC5(C)C)cs3)s2)cc(OC)c1OC`, the inhibition came to 4.2%.

Turning to `COc1cc(Nc2nc(N)c(-c3nc(-c4ccc(Cl)c(Cl)c4)cs3)s2)cc(OC)c1OC`, the inhibition turned out to be 7.3%. In the case of `COc1ccccc1-c1csc(-c2sc(Nc3cc(OC)c(OC)c(OC)c3)nc2N)n1`, the inhibition was -3.5%. For `COc1cc(Nc2nc(N)c(-c3nc(-c4c(Cl)cc(C(F)(F)F)cc4Cl)cs3)s2)cc(OC)c1OC`, the inhibition is -6%.

Turning to `COc1cc(Nc2nc(N)c(-c3nc(-c4ccc([N+](=O)[O-])cc4)cs3)s2)cc(OC)c1OC`, the inhibition is -14.4%.

In turn, `Nc1nc(Nc2ccc(S(N)(=O)=O)cc2)sc1-c1nc(C(=O)Nc2ccccc2)cs1` registered a Ki of 58 nM.

For the compound `COc1cc(Nc2nc(N)c(-c3nc(-c4ccc5ccccc5c4)cs3)s2)cc(OC)c1OC`, the inhibition is 11.6%. For `Cc1c(F)cc(-c2csc(-c3sc(Nc4ccc(S(N)(=O)=O)cc4)nc3N)n2)cc1Cl`, the inhibition was found to be 25%.

For the compound `COc1cc(Nc2nc(N)c(-c3nc(-c4cc(C)c(O)c(C)c4)cs3)s2)cc(OC)c1OC`, the inhibition came out at 28.4%.

Consider `COc1cc(Nc2nc(N)c(-c3nc(-c4ccc5c(c4)CCC(=O)N5)cs3)s2)cc(OC)c1OC`, for which the inhibition is -7.8%. As for `COc1cc(Nc2nc(N)c(-c3nc(-c4ccccc4OC(=O)c4ccccc4)cs3)s2)cc(OC)c1OC`, the inhibition came to 4.6%. On to `N#Cc1ccc(-c2csc(-c3sc(Nc4ccc(S(N)(=O)=O)cc4)nc3N)n2)cc1`, for which the inhibition is 13.3%. On to `COc1cc(Nc2nc(N)c(-c3nc(-c4ccc(CC(=O)O)s4)cs3)s2)cc(OC)c1OC`, for which the inhibition is 26.7%. On the same count and under the same terms, as for `COc1cc(Nc2nc(N)c(-c3nc(-c4ccc(O)cc4)cs3)s2)cc(OC)c1OC`, the figure is 3%; as for `COc1cc(Nc2nc(N)c(-c3nc(-c4cc(C)sc4C)cs3)s2)cc(OC)c1OC`, 7.3%; as for `COc1cc(Nc2nc(N)c(-c3nc(-c4ccc(-c5ccc(Cl)cc5Cl)o4)cs3)s2)cc(OC)c1OC`, 12.4%. For `COc1ccc(-c2csc(-c3sc(Nc4ccc(C(C)C)cc4)nc3N)n2)c(OC)c1`, the inhibition was -22.6%.
